Laboratory results as given in patent US6720184B1, “Method of altering sphingolipid metabolism and detecting fumonisin ingestion and contamination” (Emory University, priority 1991, dated 2004).
Read-outs that look alike come from different tables or passages of the source.

Columns and labels:
[1] = Excerpt: (§1) Feeding protocols—Clinically normal ponies of varying age and sex were conditioned on the control diet for 21 days prior to the trial. Horse 341 was a 6 year old gelding (173-193 Kg), 299 was a 12 year old mare (205-215 Kg), 164 was a 12 year old mare (206-290 Kg) and 166 was a 16 year old mare (143-164 Kg). During the conditioning period and throughout the trial, all ponies received alfalfa hay by free choice. The test groups were fed varying levels of fumonisin (15 to 44 ppm) for varying lengths of time.
Clinical chemistry, evaluation, and tissue collection—The following clinical chemistry parameters were also analyzed with blood: total bilirubin, direct bilirubin, urea nitrogen, alkaline phosphatase, AST/SGOT, creatine kinase, gamma glutamyl transaminase, and bile acids. The animals were observed intermittently through ut each day and behavior changes were noted. Animals that were euthanized or died underwent a routine necropsy, and brain, liver, and kidney were prepared for microscopic study.

ceramide synthase = assay: conversion of [3H]sphingosine to [3H]ceramide by intact hepatocytes; format: cell-based, rat; conditions: 1 μM for 1 h before [3H]sphingosine (FIG. 4D)
Protocol: To measure the relative activity of ceramide synthase in intact hepatocytes, the cells were incubated with 1 μM fumonisin B1 for 1 h, then 1 μCi of [^3H]sphingosine was added and the cells were incubated for varying times. The [^3H]sphingosine was freshly purified because it decomposes rapidly to a material with an Rf similar to that of ceramides on TLC. The [^3H]sphingosine was diluted to 1 Ci/mmol and applied to a small silica gel column (Unisil, Clarkston, Ill.) in chloroform. The column was washed with 10-column volumes of chloroform, the [^3H]sphingosine was eluted with methanol and the purity confirmed by TLC. The [^3H]sphingosine was transferred to a small test tube, the solvent was evaporated under N2, a small volume of culture medium was added immediately, and the tube was sonicated for a few minutes using a bath-type sonicator. Aliquots of this solution were added to the cells, and at the end or the specified incubation period the cells were scraped from the dish, 25 μg of unlabelled ceramide carrier was added, and the lipids were extracted as described above. The [^3H]ceramides were separated from [^3H]sphingosine using silica gel H TLC plates developed with diethyl ether:methanol (99:1, v/v), visualized with I2 vapor, and the amount of radiolabel was determined by scintillation counting.

[2] = test system: de novo sphingolipid biosynthesis; assay: [14C]sphingosine biosynthesis by hepatocytes isolated from rats given fumonisin B1 by gavage; format: in vivo, rat; conditions: 5 mg/200 g body weight by gavage for 2 days
[3] = test system: serine palmitoyltransferase; assay: serine palmitoyltransferase in disrupted cells after treatment of hepatocytes; format: cell-based, rat; conditions: hepatocytes treated with 2.5 μM
serum sphingolipids = assay: free long-chain bases in sera of ponies fed fumonisin-contaminated feed; format: in vivo, pony; conditions: for serum sphinganine / serum sphingosine: pony 341, 22 ppm
Protocol: Materials—Corn screenings were ground in a Romer Mill (Romer Labs, Chesterfield, Mo.) and mixed thoroughly. Samples were taken from each lot and analyzed for fumonisins by high-performance liquid chromatography (HPLC) and thin-layer chromatography as is known in the art as previously described in (15). […] Using the mean fumonisin B1 level, individual rations were prepared daily by adding the corn screenings to pellets (NADC Horse Ration, Code 560, Purina Mills, St. Louis, Mo.) and molasses (Promolas Easy Mixer supreme, Pacific Molasses Co., San Francisco, Calif.) to yield the fumonisin concentrations cited in the text. In general, the ration contained 60% pellets, 10% molasses, and 30% corn screenings. The control diet consisted of pellets plus molasses.
as §1
Analysis of serum long-chain bases—Blood was drawn approximately twice a week, centrifuged to obtain serum, and aliquots were frozen for analyses of free sphingosine and sphinganine by HPLC as is known in the art as described in (28). To quantitate total sphingolipids in some samples, the extracts were acid hydrolyzed before preparing the samples for HPLC.

rat hepatocytes = assay: radiolabelling of phospholipids from [14C]serine in hepatocytes; format: cell-based; conditions: 16 h with [14C]serine
Protocol: Other methods—The incorporation of radiolabel into other lipids was determined by separating the phospholipids by TLC using silica gel H plates developed with CHCl,:methanol:formic acid:water (56:30:2:1, v/v/v/v), visualization of the spots and standards with I2 vapor, and quantitation by scintillation counting. The amount of label in fatty acids was estimated using samples that had been incubated with 0.1 M KOH in methanol for 1 h at 37° C. and separated using the ceramide TLC system because the methyl esters migrate near the solvent front under these conditions.

[4] = pony #212, initially 44 ppm, by 7 days

Compound `CCCC[C@@H](C)[C@@H](OC(=O)C[C@@H](CC(=O)O)C(=O)O)[C@H](C[C@@H](C)C[C@H](O)CCCC[C@@H](O)C[C@H](O)[C@H](C)N)OC(=O)C[C@@H](CC(=O)O)C(=O)O` [fumonisin B1] has an AST/SGDT ([1]; Pony 208, fumonisin feed (level not given), day 2) of 344 units, an AST/SGDT ([1]; Pony 208, fumonisin feed (level not given), day 6) of 2130 units and an AST/SGDT ([1]; Pony 208, fumonisin feed (level not given), day 10) of 1240 units. The AST/SGDT ([1]; Pony 208, fumonisin feed (level not given), day 13) was 1010 units, the AST/SGDT ([1]; Pony #164, feed 44 ppm, day 2) was 235 Units and the AST/SGDT ([1]; Pony #164, feed 44 ppm, day 7) was 357 Units. The AST/SGDT ([1]; Pony #164, feed 44 ppm, day 10) was 4000 Units, the clinical signs ([1]; Pony #164, feed 44 ppm, day 10) was “^1Pony was described as nervous and off feed from day 5; by day 9 was blind and down, and on day 10 had full clinical signs of ELEM and died that evening” and the clinical signs ([1]; Pony #166, feed 44 ppm, after being put back on full feed) was “^2Pony was described as lethargic from day 5; off feed from day 8; later put back on full feed and exhibited CNS signs; was euthanized on day 45”. For the same compound, the AST/SGDT ([1]; Pony #166, feed 44 ppm, day 2) was 199 Units, the AST/SGDT ([1]; Pony #166, feed 44 ppm, day 7) was 215 Units and the AST/SGDT ([1]; Pony #166, feed 44 ppm, day 10) was 1470 Units. For the same compound, the AST/SGDT ([1]; Pony #166, feed 44 ppm, day 13) was 2080 Units, the clinical outcome ([1]; ponies 164 and 166, feed 44 ppm) was “resulted in ELEM” and the time of death ([1]; pony 164, feed 44 ppm) was 10 days. The “elevation in AST/SGOT” value ([1]; pony 166, 44 ppm, day 10) was 7 fold, the day of euthanasia ([1]; pony 166, feed 44 ppm) was 45 days and the clinical outcome ([1]; pony 341, 15 then 22 ppm, day 235) was “died with the symptoms of equine leucoencephalomalacia”. For the same compound, the “serum AST/SGOT activities” value ([1]; pony 341, 15 then 22 ppm, until between day 224 and 231) was “essentially unaffected”, the “[3H]sphingosine conversion to ceramides” value (ceramide synthase) was “Inhibition” and the “ratio of free [14C]sphingosine to [14C]sphinganine” value [2] was 0.5±0.1. For the same compound, the “inhibition of serine palmitoyltransferase in disrupted cells” value [3] was “no inhibition”, the “serine palmitoyltransferase activity in disrupted cells” value [3] was 7.7±0.2 pmol/min per mg of cellular protein and the “Ratio Sa/So” value (serum sphingolipids; Pony #164, feed 44 ppm, day 2) was 0.60. For the same compound, the “Sphinganine, free, serum” value (serum sphingolipids; Pony #164, feed 44 ppm, day 2) was 70.2 ± 4.2 pmol/mL, the “Sphingosine, free, serum” value (serum sphingolipids; Pony #164, feed 44 ppm, day 2) was 117 ± 7 pmol/mL and the “Ratio Sa/So” value (serum sphingolipids; Pony #164, feed 44 ppm, day 7) was 1.67. For the same compound, the “Sphinganine, free, serum” value (serum sphingolipids; Pony #164, feed 44 ppm, day 7) was 253 ± 22 pmol/mL, the “Sphingosine, free, serum” value (serum sphingolipids; Pony #164, feed 44 ppm, day 7) was 152 ± 13 pmol/mL and the “Ratio Sa/So” value (serum sphingolipids; Pony #164, feed 44 ppm, day 10) was 1.25. The “Sphinganine, free, serum” value (serum sphingolipids; Pony #164, feed 44 ppm, day 10) was 283 ± 18 pmol/mL, the “Sphingosine, free, serum” value (serum sphingolipids; Pony #164, feed 44 ppm, day 10) was 226 ± 20 pmol/mL and the “Ratio Sa/So” value (serum sphingolipids; Pony #166, feed 44 ppm, day 2) was 0.87. The “Sphinganine, free, serum” value (serum sphingolipids; Pony #166, feed 44 ppm, day 2) was 37.2 ± 0.2 pmol/mL, the “Sphingosine, free, serum” value (serum sphingolipids; Pony #166, feed 44 ppm, day 2) was 43 ± 6 pmol/mL and the “Ratio Sa/So” value (serum sphingolipids; Pony #166, feed 44 ppm, day 7) was 0.95. The “Sphinganine, free, serum” value (serum sphingolipids; Pony #166, feed 44 ppm, day 7) was 62 ± 8 pmol/mL, the “Sphingosine, free, serum” value (serum sphingolipids; Pony #166, feed 44 ppm, day 7) was 66 ± 16 pmol/mL and the “Ratio Sa/So” value (serum sphingolipids; Pony #166, feed 44 ppm, day 10) was 1.92. For the same compound, the “Sphinganine, free, serum” value (serum sphingolipids; Pony #166, feed 44 ppm, day 10) was 179 ± 8 pmol/mL, the “Sphingosine, free, serum” value (serum sphingolipids; Pony #166, feed 44 ppm, day 10) was 92 ± 4 pmol/mL and the “Ratio Sa/So” value (serum sphingolipids; Pony #166, feed 44 ppm, day 13) was 1.72. The “Sphinganine, free, serum” value (serum sphingolipids; Pony #166, feed 44 ppm, day 13) was 174 ± 18 pmol/mL, the “Sphingosine, free, serum” value (serum sphingolipids; Pony #166, feed 44 ppm, day 13) was 100 ± 8 pmol/mL and the “increase in serum sphinganine versus level immediately prior to feeding” value (serum sphingolipids; pony 164, 44 ppm, day 2) was 6 fold. For the same compound, the “ratio of sphinganine to sphingosine versus pre-feeding” value (serum sphingolipids; pony 164, 44 ppm, day 2) was “doubled”, the “increase in serum sphinganine versus initial level” value (serum sphingolipids; pony 164, 44 ppm, day 7) was 22 fold and the “serum sphingosine versus initial level” value (serum sphingolipids; pony 164, 44 ppm, day 7) was 3.6 fold. The “increase in serum sphinganine” value (serum sphingolipids; pony 166, 44 ppm, day 2) was 2.7 fold, the “elevation in serum sphinganine” value (serum sphingolipids; pony 166, 44 ppm, day 10) was 13 fold and the “elevation in serum sphingosine” value (serum sphingolipids; pony 166, 44 ppm, day 10) was 2 fold. The serum sphinganine (serum sphingolipids; day 231) was 256 pmol/mL, the serum sphingosine (serum sphingolipids; day 231) was 163 pmol/mL and the serum sphinganine (serum sphingolipids; day 235) was 532 pmol/mL. The serum sphingosine (serum sphingolipids; day 235) was 418 pmol/mL, the “sphinganine to sphingosine ratio” value (serum sphingolipids; pony 341, reintroduction of 22 ppm on day 182) was greater than 1.5 and the “further increase of serum sphingosine versus day 2” value (serum sphingolipids; [4]) was 2 fold. The “serum sphinganine versus level at day 2” value (serum sphingolipids; [4]) was 6.7 fold, the “sphinganine exceeding level of sphingosine” value (serum sphingolipids; [4]) was 1.9 fold and the serum sphingosine level (serum sphingolipids; pony #212, initially 44 ppm, within 2 days) was 147 ± 5 pmol. For the same compound, the “ratio of sphinganine to sphingosine” value (serum sphingolipids; pony #341, 15 ppm, first 130 days) was “fairly consistent elevation over the initial value”, the “Radiolabelling Phosphatidylcholine” value (rat hepatocytes; 1 μM) was 2640 ± 264 cm/mg protein × 10^−3 and the “Radiolabelling Phosphatidylethanolamine” value (rat hepatocytes; 1 μM) was 163 ± 4.4 cm/mg protein × 10^−3. The “Radiolabelling Phosphatidylserine” value (rat hepatocytes; 1 μM) was 48.8 ± 2.9 cm/mg protein × 10^−3, the “Radiolabelling Phosphatidylcholine” value (rat hepatocytes; 10 μM) was 2740 ± 196 cm/mg protein × 10^−3 and the “Radiolabelling Phosphatidylethanolamine” value (rat hepatocytes; 10 μM) was 153 ± 10 cm/mg protein × 10^−3. For the same compound, the “Radiolabelling Phosphatidylserine” value (rat hepatocytes; 10 μM) was 52.3 ± 3.6 cm/mg protein × 10^−3.
